Assay results published in US11584755B2 (IDEAYA BIOSCIENCES, INC., priority 2017, dated 2023).

What was measured:
Format in all cases: biochemical
[1] = target: hEXO1, Isoform1 (Homo sapiens (Human), UniProt Q9UQ84); test: Enzymatic IC50 assay, FAM-labeled DNA oligomer substrate, fluorescence intensity (EXO1); conditions: hEXO1 6 nM, substrate 30 nM, reaction time 60 minutes, 23° C.
Procedure: (§1) FEN1, EXO1 or XPG enzyme was incubated with compound or vehicle (DMSO) and the FAM-labeled DNA oligomer substrate in a microtiter plate. The stop buffer contains EDTA to stop the enzymatic reaction. The plate is read for fluorescence intensity. The high control (DMSO) with high fluorescence intensity represents no inhibition of enzymatic reaction while the low control (10 μM) with low fluorescence intensity represents full inhibition of enzymatic reaction.
(§2) • FEN1 • hFEN1: 70 pM • Substrate: 100 nM • Reaction time: 20 minutes • EXO1 • hEXO1: 6 nM, Isoforml • Substrate: 30 nM • Reaction time: 60 minutes • XPG • hXPG: 100 nM • Substrate: 100 nM • Reaction time: 120 minutes
(§3) Annealing Buffer: 50 mM Tris-HCl, 50 mM NaCl, 1 mM DTT Assay buffer: 50 mM Tris-HCl pH 8.0, 10 mM MgCl2, 0.01% BSA, 1 mM DTT Stop buffer: 50 mM EDTA in assay buffer Temperature: 23° C. Total volume: 40 μl Controls: • 0% inhibition control: DMSO • 100% inhibition control: 10 μM (final) 5-chloro-3-hydroxy-1,3-dihydroquinazoline-2,4-dione Enzyme Reaction and Detection: • 1. Prepare 25 μM intermediate stock of the substrate by diluting SEQ ID NO:1, SEQ ID NO:2, and SEQ ID NO:3 in annealing buffer, in a PCR tube. • 2. Place the PCR tube on a heat block, heat at 95° C. for 3 minutes, then drop in 0.2° C. increments over 2 minutes, stopping at 25° C. • 3. Remove the tube and let the tube cool at room temperature. • 4. Transfer 10 μL of 3× final concentration test compounds or DMSO to the appropriate wells of a microtiter plate. • 5. Transfer 10 μL of 3× final concentration enzyme in assay buffer or assay buffer alone to the appropriate wells. • 6. Incubate the plate at room temperature for 15 minutes. • 7. Transfer 10 μL of 3× substrate in assay buffer to all the test wells. • 8. Incubate the plate at room temperature for prescribed reaction time. • 9. Centrifuge the plate at 1000 rpm for 1 minute. • 10. Transfer 10 μL of stop buffer to all the test wells. • 11. Centrifuge the plate at 1000 rpm for 1 minute. • 12. Read the plate on a plate reader.

[2] = target: hXPG (Homo sapiens (Human), UniProt P28715); test: Enzymatic IC50 assay, FAM-labeled DNA oligomer substrate, fluorescence intensity (XPG); conditions: hXPG 100 nM, substrate 100 nM, reaction time 120 minutes, 23° C.
Procedure: as §1, §2, §3

[3] = target: hFEN1 (Homo sapiens (Human), UniProt P39748); test: Enzymatic IC50 assay, FAM-labeled DNA oligomer substrate, fluorescence intensity (FEN1); conditions: hFEN1 70 pM, substrate 100 nM, reaction time 20 minutes, 23° C.
Outline: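 FEN1, EXO1 or XPG was preincubated 15 min with compound, then the FAM-labelled DNA oligomer substrate was added in Tris-HCl pH 8.0 with 10 mM MgCl2 at 23° C. FEN1 was 70 pM with 100 nM substrate for 20 min, EXO1 6 nM with 30 nM for 60 min, and XPG 100 nM with 100 nM for 120 min. Reactions were EDTA-stopped and read by fluorescence intensity.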

hFEN1, sequence (P39748 whole entry): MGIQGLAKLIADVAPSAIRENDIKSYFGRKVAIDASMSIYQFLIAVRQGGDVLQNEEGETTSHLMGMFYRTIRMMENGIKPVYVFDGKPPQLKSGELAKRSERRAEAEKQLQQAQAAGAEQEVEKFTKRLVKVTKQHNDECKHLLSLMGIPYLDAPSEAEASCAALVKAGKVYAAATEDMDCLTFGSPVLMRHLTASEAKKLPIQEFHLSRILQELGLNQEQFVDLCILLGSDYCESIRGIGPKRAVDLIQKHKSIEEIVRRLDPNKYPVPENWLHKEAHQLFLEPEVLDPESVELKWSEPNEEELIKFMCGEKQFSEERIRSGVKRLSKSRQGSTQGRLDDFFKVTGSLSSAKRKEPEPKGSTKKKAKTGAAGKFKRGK
hXPG, sequence (P28715 whole entry): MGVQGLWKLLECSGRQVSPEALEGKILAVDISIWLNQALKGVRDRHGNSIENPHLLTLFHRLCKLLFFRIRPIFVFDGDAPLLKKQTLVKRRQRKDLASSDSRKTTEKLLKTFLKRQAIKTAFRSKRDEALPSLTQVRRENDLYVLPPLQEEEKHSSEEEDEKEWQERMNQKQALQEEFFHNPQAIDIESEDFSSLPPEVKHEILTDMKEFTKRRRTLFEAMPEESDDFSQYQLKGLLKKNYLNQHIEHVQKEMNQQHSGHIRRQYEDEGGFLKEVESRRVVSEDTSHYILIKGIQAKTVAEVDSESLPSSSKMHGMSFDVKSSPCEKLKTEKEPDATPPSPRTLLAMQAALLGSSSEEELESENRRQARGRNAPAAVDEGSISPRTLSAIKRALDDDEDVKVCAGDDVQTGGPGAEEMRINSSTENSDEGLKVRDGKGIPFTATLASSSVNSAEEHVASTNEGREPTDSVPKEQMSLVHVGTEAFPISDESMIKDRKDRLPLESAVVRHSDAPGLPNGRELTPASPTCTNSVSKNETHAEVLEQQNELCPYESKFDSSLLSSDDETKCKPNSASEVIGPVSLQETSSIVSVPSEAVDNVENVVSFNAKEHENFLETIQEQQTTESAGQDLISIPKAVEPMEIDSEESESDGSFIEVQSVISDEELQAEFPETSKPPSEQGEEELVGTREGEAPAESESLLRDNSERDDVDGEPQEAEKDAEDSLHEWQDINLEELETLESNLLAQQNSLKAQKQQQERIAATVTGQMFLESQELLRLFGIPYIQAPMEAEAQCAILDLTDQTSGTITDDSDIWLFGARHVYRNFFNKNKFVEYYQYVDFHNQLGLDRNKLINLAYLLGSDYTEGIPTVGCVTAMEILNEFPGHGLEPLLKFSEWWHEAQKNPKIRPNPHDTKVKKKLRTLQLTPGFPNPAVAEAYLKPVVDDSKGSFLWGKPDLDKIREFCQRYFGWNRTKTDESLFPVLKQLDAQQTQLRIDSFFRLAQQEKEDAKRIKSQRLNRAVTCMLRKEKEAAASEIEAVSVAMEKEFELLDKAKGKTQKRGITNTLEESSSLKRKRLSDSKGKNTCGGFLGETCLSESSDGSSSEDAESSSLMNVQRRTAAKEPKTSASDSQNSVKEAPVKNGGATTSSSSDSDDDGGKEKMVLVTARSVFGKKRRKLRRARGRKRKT
hEXO1, Isoform1, sequence (Q9UQ84 whole entry, canonical isoform): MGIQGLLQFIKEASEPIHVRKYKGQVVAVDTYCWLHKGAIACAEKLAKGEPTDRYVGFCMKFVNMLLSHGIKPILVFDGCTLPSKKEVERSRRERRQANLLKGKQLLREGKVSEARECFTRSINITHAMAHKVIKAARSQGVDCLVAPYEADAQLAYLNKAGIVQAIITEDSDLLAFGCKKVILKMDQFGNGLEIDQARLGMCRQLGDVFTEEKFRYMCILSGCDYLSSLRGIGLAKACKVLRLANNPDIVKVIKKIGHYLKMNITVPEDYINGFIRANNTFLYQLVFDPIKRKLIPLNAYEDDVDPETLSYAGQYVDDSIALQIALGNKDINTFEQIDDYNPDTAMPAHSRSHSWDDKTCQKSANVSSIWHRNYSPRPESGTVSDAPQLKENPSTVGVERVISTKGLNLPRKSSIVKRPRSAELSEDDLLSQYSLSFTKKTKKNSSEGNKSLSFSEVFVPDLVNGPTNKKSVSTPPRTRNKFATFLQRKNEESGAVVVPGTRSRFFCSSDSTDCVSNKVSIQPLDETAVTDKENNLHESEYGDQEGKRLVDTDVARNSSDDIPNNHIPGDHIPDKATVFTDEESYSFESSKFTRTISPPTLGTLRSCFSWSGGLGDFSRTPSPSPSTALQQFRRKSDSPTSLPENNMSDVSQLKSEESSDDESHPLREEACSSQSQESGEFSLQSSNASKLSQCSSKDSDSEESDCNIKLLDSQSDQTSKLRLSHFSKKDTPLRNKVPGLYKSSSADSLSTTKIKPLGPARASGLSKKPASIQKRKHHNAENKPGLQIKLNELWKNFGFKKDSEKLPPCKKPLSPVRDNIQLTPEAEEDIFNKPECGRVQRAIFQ

Compound | IC50 [1] [nM] | IC50 [2] [nM] | IC50 [3] [nM]
CS(=O)(=O)c1ccc(Cn2cc(Cn3c(=O)c(O)c(C(=O)O)c4sccc43)cn2)cc1 [Example 130, 6-hydroxy-4-({1-[4-(methylsulfonyl)benzyl]-1H-pyrazol-4-yl}methyl)-5-oxo-4,5-dihydrothieno[3,2-b]pyridine-7-carboxylic acid] | 2250 to 10000 | 2250 to 10000 | < 200
CS(=O)(=O)Nc1cccc(Cn2c(=O)c(O)c(C(=O)O)c3sccc32)c1 [Example 78, 6-hydroxy-4-[3-(methylsulfonamido)benzyl]-5-oxo-4,5-dihydrothieno[3,2-b]pyridine-7-carboxylic acid] | 750 to 2250 | 2250 to 10000 | 250 to 750
O=C(O)c1c(O)c(=O)n(Cc2cn(-c3ccc4c(c3)OCO4)nn2)c2ccsc12 [Example 148, 4-{[1-(benzo[d][1,3]dioxol-5-yl)-1H-1,2,3-triazol-4-yl]methyl}-6-hydroxy-5-oxo-4,5-dihydrothieno[3,2-b]pyridine-7-carboxylic acid] | 250 to 750 | 250 to 750 | < 200
O=C(O)c1c(O)c(=O)n(Cc2cnn(Cc3cccc4nonc34)c2)c2ccsc12 [Example 140, 4-{[1-(benzo[c][1,2,5]oxadiazol-4-ylmethyl)-1H-pyrazol-4-yl]methyl}-6-hydroxy-5-oxo-4,5-dihydrothieno[3,2-b]pyridine-7-carboxylic acid] | 2250 to 10000 | 2250 to 10000 | < 200
O=C(O)c1c(O)c(=O)n(Cc2cnn(Cc3ccncc3)c2)c2ccsc12 [Example 121, 6-hydroxy-5-oxo-4-{[1-(pyridin-4-ylmethyl)-1H-pyrazol-4-yl]methyl}-4,5-dihydrothieno[3,2-b]pyridine-7-carboxylic acid] | 2250 to 10000 | 2250 to 10000 | < 200
CC(=O)Nc1ccc(Cn2c(=O)c(O)c(C(=O)O)c3sccc32)cc1 [Example 40, 4-(4-acetamidobenzyl)-6-hydroxy-5-oxo-4,5-dihydrothieno[3,2-b]pyridine-7-carboxylic acid] | 2250 to 10000 | 2250 to 10000 | < 200
O=C(O)c1c(O)c(=O)n(Cc2cn(-c3ccc4nc[nH]c4c3)nn2)c2ccsc12 [Example 149, 4-{[1-(1H-benzo[d]imidazol-6-yl)-1H-1,2,3-triazol-4-yl]methyl}-6-hydroxy-5-oxo-4,5-dihydrothieno[3,2-b]pyridine-7-carboxylic acid] | 2250 to 10000 | 750 to 2250 | < 200
O=C(O)c1c(O)c(=O)n(Cc2ccc3[nH]cnc3c2)c2ccsc12 [Example 99, 4-[(1H-benzo[d]imidazol-5-yl)methyl]-6-hydroxy-5-oxo-4,5-dihydrothieno[3,2-b]pyridine-7-carboxylic acid] | 750 to 2250 | 2250 to 10000 | < 200
N#Cc1cccc(Cn2cc(Cn3c(=O)c(O)c(C(=O)O)c4sccc43)cn2)c1 [Example 128, 4-{[1-(3-cyanobenzyl)-1H-pyrazol-4-yl]methyl}-6-hydroxy-5-oxo-4,5-dihydrothieno[3,2-b]pyridine-7-carboxylic acid] | 2250 to 10000 | 2250 to 10000 | < 200
O=C(O)c1c(O)c(=O)n(Cc2cccc(Cl)c2)c2ccsc12 [Example 34, 4-(3-chlorobenzyl)-6-hydroxy-5-oxo-4,5-dihydrothieno[3,2-b]pyridine-7-carboxylic acid] | 2250 to 10000 | 2250 to 10000 | < 200
O=C(O)c1c(O)c(=O)n(Cc2cnn(Cc3ccccc3)c2)c2ccsc12 [Example 122, 4-[(1-benzyl-1H-pyrazol-4-yl)methyl]-6-hydroxy-5-oxo-4,5-dihydrothieno[3,2-b]pyridine-7-carboxylic acid] | 2250 to 10000 | 750 to 2250 | < 200
N#Cc1ccccc1-n1cc(Cn2c(=O)c(O)c(C(=O)O)c3sccc32)cn1 [Example 111, 4-{[1-(2-cyanophenyl)-1H-pyrazol-4-yl]methyl}-6-hydroxy-5-oxo-4,5-dihydrothieno[3,2-b]pyridine-7-carboxylic acid] | 250 to 750 | 750 to 2250 | 250 to 750
O=C(O)c1c(O)c(=O)n(Cc2cnn3ccccc23)c2ccsc12 [Example 24, 6-hydroxy-5-oxo-4-(pyrazolo[1,5-a]pyridin-3-ylmethyl)-4,5-dihydrothieno[3,2-b]pyridine-7-carboxylic acid] | 750 to 2250 | < 200 | < 200
O=C(O)c1c(O)c(=O)n(CC2CCOC2)c2ccsc12 (stereo not drawn) [Example 42, 6-hydroxy-5-oxo-4-((tetrahydrofuran-3-yl)methyl)-4,5-dihydrothieno[3,2-b]pyridine-7-carboxylic acid] | 2250 to 10000 | 2250 to 10000 | 2250 to 10000
N#Cc1ccc(Cn2cc(Cn3c(=O)c(O)c(C(=O)O)c4sccc43)cn2)cc1 [Example 127, 4-{[1-(4-cyanobenzyl)-1H-pyrazol-4-yl]methyl}-6-hydroxy-5-oxo-4,5-dihydrothieno[3,2-b]pyridine-7-carboxylic acid] | 750 to 2250 | 2250 to 10000 | < 200
O=C(O)c1c(O)c(=O)n(Cc2ccc(Oc3ccccc3)cc2)c2ccsc12 [Example 81, 6-hydroxy-5-oxo-4-(4-phenoxybenzyl)-4,5-dihydrothieno[3,2-b]pyridine-7-carboxylic acid] | 2250 to 10000 | 2250 to 10000 | 250 to 750
COc1ccc(Cn2c(=O)c(O)c(C(=O)O)c3sccc32)cc1 [Example 12, 6-hydroxy-4-[(4-methoxyphenyl)methyl]-5-oxo-thieno[3,2-b]pyridine-7-carboxylic acid] | 2250 to 10000 | 2250 to 10000 | < 200
CS(=O)(=O)c1cccc(Cn2cc(Cn3c(=O)c(O)c(C(=O)O)c4sccc43)cn2)c1 [Example 131, 6-hydroxy-4-({1-[3-(methylsulfonyl)benzyl]-1H-pyrazol-4-yl}methyl)-5-oxo-4,5-dihydrothieno[3,2-b]pyridine-7-carboxylic acid] | 2250 to 10000 | 2250 to 10000 | < 200
O=C(O)c1c(O)c(=O)n(Cc2cnn(Cc3ccc4nonc4c3)c2)c2ccsc12 [Example 141, 4-{[1-(benzo[c][1,2,5]oxadiazol-5-ylmethyl)-1H-pyrazol-4-yl]methyl}-6-hydroxy-5-oxo-4,5-dihydrothieno[3,2-b]pyridine-7-carboxylic acid] | 750 to 2250 | 2250 to 10000 | < 200
N#Cc1ccc(Cn2cc(Cn3c(=O)c(O)c(C(=O)O)c4sccc43)cn2)c(C(F)(F)F)c1 [Example 146, 4-({1-[4-cyano-2-(trifluoromethyl)benzyl]-1H-pyrazol-4-yl}methyl)-6-hydroxy-5-oxo-4,5-dihydrothieno[3,2-b]pyridine-7-carboxylic acid] | 2250 to 10000 | 750 to 2250 | < 200
Cc1cc(Cn2c(=O)c(O)c(C(=O)O)c3sccc32)on1 [Example 83, 6-hydroxy-4-[(3-methylisoxazol-5-yl)methyl]-5-oxo-4,5-dihydrothieno[3,2-b]pyridine-7-carboxylic acid] | > 10000 | > 10000 | 250 to 750
O=C(O)c1c(O)c(=O)n(Cc2cnn(CCc3ccncc3)c2)c2ccsc12 [Example 28, 6-hydroxy-5-oxo-4-({1-[2-(4-pyridyl)ethyl]pyrazol-4-yl}methyl)thieno[3,2-b]pyridine-7-carboxylic acid] | 2250 to 10000 | 2250 to 10000 | < 200
